Values joined by “and” are separate entries in the source; they are usually repeats but may differ in a detail not shown here. Equal entries are not always repeated.
Assays:
[1] = Photoacoustic signal relative to whole blood; design: species or system sheep; details: 20 μM, excited at 895 nm, PTFE tubing
Method: Photoacoustic Measurement: The 96-well plate was secured to the bottom of a plastic water reservoir. The reservoir was filled with deionized water, completely submerging the sample. For comparison of smaller volumes, 2-inch segments of 24-gauge PTFE tubing ([…]) was filled with various samples. The tubes were placed in a clear acrylic chamber submerging the samples in deionized water. A single element piezoelectric 35 MHz or 5 MHz focused transducer (V326, Olympus, Mass., USA) was fixed at 12 mm or 45 mm above each sample with their functional element submerged in deionized water. […] The photoacoustic signal recorded from the transducer is sent to a 20/40db amplifier (HVA-200M, Femto) from there the signal is recorded through a lock-in amplifier (Zurich Instruments, Zurich, Switzerland) triggered on each laser pulse using a photodiode placed near the laser source. […] The absolute amplitude of each waveform was calculated, averaged, and normalized to the signal recorded from India ink or whole sheep's blood containing anticoagulant.
To explore the possibility of using JAAZ in vivo, the photoacoustic signal was compared to whole blood. […] PA signals were recorded from each sample and the signal amplitude was normalized to the whole-blood PA-signal amplitude (FIG. 5D). […]
The in-vitro photoacoustic (PA) properties of the N-JAAZ particles were further evaluated. […]

[2] = Fluorescence measurements; format: physicochemical; details: excitation 720 nm, emission 770-850 nm
Method: Fluorescence measurements: Fluorescence intensity of different concentrations of free ICG dye and J-aggregates was recorded using a Tecan Safire^2™ (Mannendorf, Switzerland) fluorescence microplate reader. Both free ICG dye and J-aggregate particles were excited at 720 nm with an emission at 770 nm. The fluorescence emission spectrum was recorded from 770 to 850 nm with a step size of 2 nm.

[3] = Phantom PA spectra on TriTom imaging system; details: 0.4 mM in microcuvette tubes
Method: (§1) We first acquired multiwavelength images of microcuvette tubes containing 0.4 mM of ICG dye or RGD-JAAZ particles to evaluate the PA spectra of both contrast agents. […] For in vivo imaging experiments, multispectral PAI were acquired in two female nu/nu nude mice at various timepoints (0, 10, 90 min) following tail-vein administration of ICG dye and RGD-JAAZ particles (FIGS. 39A-39D). A pre-injection baseline PA signal at 895 nm was also acquired for reference (FIG. 39B). […] Molecular maps were generated from a linear spectral unmixing of the multiwavelength PA images using previously reported spectra for hemoglobin and the measured spectra of the RGD-JAAZ particles at their injection concentration.

in vivo = test: in vivo
Method: as §1

CC1(C)C(/C=C/C=C/C=C/C=C2\N(CCCCS(=O)(=O)O)c3ccc4ccccc4c3C2(C)C)=[N+](CCCCS(=O)(=O)[O-])c2ccc3ccccc3c21 [ICG, Indocyanine Green]
PA signal relative to whole blood [1]: ~0.03 x | fluorescence emission [2]: recordable fluorescence intensity | peak PA signal wavelength (phantom) [3]: 740 nm and 780 nm | Contrast-to-noise ratio (in vivo; blood vessels, 90-minutes post-injection, n=2): 1.59 | half-life (in vivo; female, nu/nu nude, mouse, in vivo): 1.19 ± 0.45 min

Reference: patent US20230118682A1, “MODIFIED J-AGGREGATES AND CONJUGATES THEREOF” (GEORGE MASON UNIVERSITY, priority 2021, published 2023)
